Experimental data published in patent US10828317B2, “Method of treating bacterial infections” (priority 2016, dated 2020).
Read-outs that look alike come from different tables or passages of the source.

Legend:
E. coli EN001 = assay: MIC, WT (EN001 = EN0001, ATCC 25922); assay type: cell-based, Escherichia coli
E. coli EN002 = assay: MIC, DtoIC; assay type: cell-based, Escherichia coli; conditions: Escherichia coli, read-out: MIC
E. coli EN003 = assay: microbe, parasite or virus in culture; assay type: cell-based, Escherichia coli; conditions: Escherichia coli, EN003, combination didanosine+trimethoprim+uridine, Table 10
P. aeruginosa EN004 = assay: MIC, WT (EN004 = EN0004); assay type: cell-based, Pseudomonas aeruginosa
K. pneumoniae EN006 = assay: MIC, WT (EN006 = EN0006, ATCC 13883); assay type: cell-based, Klebsiella pneumoniae; conditions: Klebsiella pneumoniae, read-out: MIC
S. aureus EN008 = assay: MIC, Gram-positive control; assay type: cell-based, Staphylococcus aureus; conditions: Staphylococcus aureus, read-out: MIC
E. coli EN012 = assay: MIC, WT; assay type: cell-based, Escherichia coli; conditions: Escherichia coli, read-out: MIC
P. aeruginosa EN014 = assay: MIC, WT; assay type: cell-based, Pseudomonas aeruginosa; conditions: Pseudomonas aeruginosa, read-out: MIC
A. baumannii EN016 = assay: MIC, WT; assay type: cell-based, Acinetobacter baumannii; conditions: Acinetobacter baumannii, read-out: MIC
E. coli EN0134 = assay: MIC, AmpC (CMY-4); assay type: cell-based; conditions: Escherichia coli, EN0134, combination didanosine+trimethoprim+uridine, Table 20; read-out: MIC
E. coli EN0136 = assay: MIC, ESBL (CTX-M-2); assay type: cell-based; conditions: Escherichia coli, read-out: MIC
E. coli EN0137 = assay: MIC, ESBL (CTX-M-15); assay type: cell-based; conditions: Escherichia coli, EN0137, combination didanosine+trimethoprim+uridine, Table 20; read-out: MIC
E. coli EN0235 = assay: microbe, parasite or virus in culture; assay type: cell-based; conditions: Escherichia coli
K. pneumoniae EN0140 = assay: MIC, AmpC (DHA-1); assay type: cell-based; conditions: Klebsiella pneumoniae, EN0140, combination didanosine+trimethoprim+uridine, Table 20; read-out: MIC
K. pneumoniae EN0144 = assay: MIC, MBL (VIM-1); assay type: cell-based; conditions: Klebsiella pneumoniae, EN0144, combination didanosine+trimethoprim+uridine, Table 20; read-out: MIC
K. pneumoniae EN0145 = assay: MIC, KPC-2; assay type: cell-based; conditions: Klebsiella pneumoniae, read-out: MIC
K. pneumoniae EN0244 = assay: MIC, colistinR; assay type: cell-based; conditions: Klebsiella pneumoniae, EN0244, combination didanosine+trimethoprim+uridine, Table 20; read-out: MIC
K. pneumoniae EN0245 = assay: MIC, colistinR; assay type: cell-based; conditions: Klebsiella pneumoniae, EN0245, combination didanosine+trimethoprim+uridine, Table 20; read-out: MIC
K. pneumoniae EN0249 = assay: MIC, colistinR; assay type: cell-based; conditions: Klebsiella pneumoniae, EN0249, combination didanosine+trimethoprim+uridine, Table 20; read-out: MIC
S. flexneri APV00907 = assay: MIC and antibiogram; assay type: cell-based; conditions: Shigella flexneri, Table 22A
Excerpt: Inhibition of Heliobacter is important in view of increasing resistance and its association to gastric cancer.

S. sonnei APV00908 = assay: MIC and antibiogram; assay type: cell-based; conditions: Shigella sonnei, Table 22A
[1] = combination AZT+trimethoprim+uridine, Table 17B

Compound: O=c1ccn([C@@H]2O[C@H](CO)[C@@H](O)[C@H]2O)c(=O)[nH]1 [Uridine, uridine]
- MIC (E. coli EN001; Escherichia coli, EN001, combination FdUrd+trimethoprim+uridine, Table 8, read-out: MIC): 13 mg/L
- MIC (E. coli EN001; Escherichia coli, EN001, combination didanosine+trimethoprim+uridine, Table 10, read-out: MIC): 13 mg/L
- MIC (E. coli EN001; [1]): 13 mg/L
- MIC (E. coli EN002; EN002, Combination 2 AZT+trimethoprim+uridine+thymidine, Table 16): 12.5 mg/L
- MIC (E. coli EN002; EN002, combination AZT+trimethoprim+uridine, Table 6): 4 mg/L
- MIC (E. coli EN002; EN002, combination FdUrd+trimethoprim+uridine, Table 8): 6 mg/L
- MIC (E. coli EN002; EN002, combination didanosine+trimethoprim+uridine, Table 10): 6 mg/L
- MIC (E. coli EN003): 6 mg/L
- MIC (P. aeruginosa EN004; Pseudomonas aeruginosa, EN004, Combination 1 AZT+trimethoprim+uridine, Table 16, read-out: MIC): > 400 mg/L
- MIC (P. aeruginosa EN004; Pseudomonas aeruginosa, EN004, Combination 2 AZT+trimethoprim+uridine+thymidine, Table 16, read-out: MIC): > 400 mg/L
- MIC (P. aeruginosa EN004; Pseudomonas aeruginosa, EN004, combination AZT+trimethoprim+uridine, Table 6, read-out: MIC): > 1000 mg/L
- MIC (P. aeruginosa EN004; Pseudomonas aeruginosa, EN004, combination FdUrd+trimethoprim+uridine, Table 8, read-out: MIC): > 400 mg/L
- MIC (P. aeruginosa EN004; Pseudomonas aeruginosa, EN004, combination didanosine+trimethoprim+uridine, Table 10, read-out: MIC): > 400 mg/L
- MIC (P. aeruginosa EN004; [1]): >400 mg/L
- MIC (P. aeruginosa EN004; combination FdUrd+trimethoprim+uridine, Table 19): >400 mg/L
- MIC (P. aeruginosa EN004; combination didanosine+trimethoprim+uridine, Table 20): >400 mg/L
- MIC (K. pneumoniae EN006; EN006, Combination 1 AZT+trimethoprim+uridine, Table 16): 12.5 mg/L
- MIC (K. pneumoniae EN006; EN006, combination AZT+trimethoprim+uridine, Table 6): 16 mg/L
- MIC (S. aureus EN008; EN008, Combination 2 AZT+trimethoprim+uridine+thymidine, Table 16): > 400 mg/L
- MIC (S. aureus EN008; EN008, combination FdUrd+trimethoprim+uridine, Table 8): < 0.8 mg/L
- MIC (E. coli EN012; EN012, combination FdUrd+trimethoprim+uridine, Table 8): 3 mg/L
- MIC (E. coli EN012; EN012, combination didanosine+trimethoprim+uridine, Table 10): 6 mg/L
- MIC (P. aeruginosa EN014; EN014, Combination 1 AZT+trimethoprim+uridine, Table 16): > 400 mg/L
- MIC (P. aeruginosa EN014; EN014, Combination 2 AZT+trimethoprim+uridine+thymidine, Table 16): > 400 mg/L
- MIC (P. aeruginosa EN014; EN014, combination AZT+trimethoprim+uridine, Table 6): > 1000 mg/L
- MIC (P. aeruginosa EN014; EN014, combination FdUrd+trimethoprim+uridine, Table 8): > 400 mg/L
- MIC (P. aeruginosa EN014; EN014, combination didanosine+trimethoprim+uridine, Table 10): > 400 mg/L
- MIC (A. baumannii EN016; EN016, Combination 1 AZT+trimethoprim+uridine, Table 16): > 400 mg/L
- MIC (A. baumannii EN016; EN016, Combination 2 AZT+trimethoprim+uridine+thymidine, Table 16): > 400 mg/L
- MIC (A. baumannii EN016; EN016, combination AZT+trimethoprim+uridine, Table 6): > 1000 mg/L
- MIC (A. baumannii EN016; EN016, combination FdUrd+trimethoprim+uridine, Table 8): 400 mg/L
- MIC (A. baumannii EN016; EN016, combination didanosine+trimethoprim+uridine, Table 10): > 400 mg/L
- MIC (E. coli EN0134): > 400 mg/L
- MIC (E. coli EN0136; EN0136, combination AZT+trimethoprim+uridine, Table 17B): 13 mg/L
- MIC (E. coli EN0136; EN0136, combination didanosine+trimethoprim+uridine, Table 20): > 400 mg/L
- MIC (E. coli EN0137): > 400 mg/L
- MIC (E. coli EN0235; EN0235, combination FdUrd+trimethoprim+uridine, Table 19): 6 mg/L
- MIC (E. coli EN0235; EN0235, combination didanosine+trimethoprim+uridine, Table 20): 13 mg/L
- MIC (K. pneumoniae EN0140): > 400 mg/L
- MIC (K. pneumoniae EN0144): > 400 mg/L
- MIC (K. pneumoniae EN0145; EN0145, combination FdUrd+trimethoprim+uridine, Table 19): > 400 mg/L
- MIC (K. pneumoniae EN0145; EN0145, combination didanosine+trimethoprim+uridine, Table 20): > 400 mg/L
- MIC (K. pneumoniae EN0244): > 400 mg/L
- MIC (K. pneumoniae EN0245): > 400 mg/L
- MIC (K. pneumoniae EN0249): > 400 mg/L
- MIC (S. flexneri APV00907; APV00907, combination AZT+trimethoprim+uridine): 200 mg/L
- MIC (S. flexneri APV00907; APV00907, combination FdUrd+trimethoprim+uridine): > 400 mg/L
- MIC (S. sonnei APV00908; APV00908, combination AZT+trimethoprim+uridine): 3 mg/L
- MIC (S. sonnei APV00908; APV00908, combination FdUrd+trimethoprim+uridine): > 400 mg/L
